Source: ChEMBL document CHEMBL1201862, “PubChem BioAssay data set” (2004)
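How tested: cells in 96-well plates exposed to compound for 48 hours at five concentrations. GI50 is the concentration that inhibits growth by half.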 Active and inactive are the calls of the source. Cut-off read from the data, not from the text of the source: active = GI50 up to about 1.1 µM and inactive = higher.

Assays:
Assay in all cases: NCI-60 cell line screen, 48 h
786-0 = system: 786-0
ACHN = system: ACHN
COLO 205 = system: COLO 205
EKVX = system: EKVX
HCC 2998 = system: HCC 2998
HCT-15 = system: HCT-15
K562 = system: K562
MCF7 = system: MCF7
Malme-3M = system: Malme-3M
NCI-H226 = system: NCI-H226
NCI-H23 = system: NCI-H23
OVCAR-5 = system: OVCAR-5
RXF 393 = system: RXF 393
SF-539 = system: SF-539
SK-MEL-28 = system: SK-MEL-28
SK-MEL-5 = system: SK-MEL-5
SW-620 = system: SW-620
MOLT-4 = system: MOLT-4
NCI/ADR-RES = system: NCI/ADR-RES
OVCAR-8 = system: OVCAR-8

SMILES	GI50 (786-0)	GI50 (ACHN)	GI50 (COLO 205)	GI50 (EKVX)	GI50 (HCC 2998)	GI50 (HCT-15) [µM]	GI50 (K562)	GI50 (MCF7)	GI50 (Malme-3M)	GI50 (NCI-H226)	GI50 (NCI-H23)	GI50 (OVCAR-5)	GI50 (RXF 393)	GI50 (SF-539)	GI50 (SK-MEL-28)	GI50 (SK-MEL-5)	GI50 (SW-620)	GI50 (MOLT-4)	GI50 (NCI/ADR-RES)	GI50 (OVCAR-8)
CCCN1C(=O)CN(S(=O)(=O)c2ccc(Cl)cc2)C1=O	> 100 µM (inactive)	> 100 µM (inactive)	> 100 µM (inactive)	> 100 µM (inactive)	> 100 µM (inactive)	> 100	> 100 µM (inactive)	> 100 µM (inactive)	> 100 µM (inactive)	> 100 µM (inactive)	> 100 µM (inactive)	> 100 µM (inactive)	> 100 µM (inactive)	> 100 µM (inactive)	> 100 µM (inactive)	> 100 µM (inactive)	> 100 µM (inactive)	–	–	–
S=C1CC(c2ccc(Cl)cc2)Sc2ccccc2N1 (stereo unspecified)	34 µM (inactive)	71.8 µM (inactive)	71.9 µM (inactive)	34 µM (inactive)	–	90.8	> 10 µM (inactive)	39.4 µM (inactive)	53.2 µM (inactive)	50.5 µM (inactive)	37.2 µM (inactive)	> 100 µM (inactive)	16.2 µM (inactive)	–	25.2 µM (inactive)	25.3 µM (inactive)	–	> 10 µM (inactive)	32.4 µM (inactive)	> 100 µM (inactive)
CCS(CC)(CC)CC1CCCC2=CCC(P(=O)(c3ccccc3)c3ccccc3)CC21 (stereo unspecified)	10.9 µM (inactive)	9.02 µM (inactive)	17 µM (inactive)	14.3 µM (inactive)	9.25 µM (inactive)	8.26	4.09 µM (inactive)	–	18.4 µM (inactive)	18.7 µM (inactive)	10.5 µM (inactive)	15.6 µM (inactive)	9.66 µM (inactive)	13.3 µM (inactive)	14.4 µM (inactive)	13.2 µM (inactive)	13.9 µM (inactive)	4.43 µM (inactive)	–	11.4 µM (inactive)
Cn1c(N/N=C/c2ccc(Cl)cc2)nc(-c2ccc(Cl)cc2)c(C#N)c1=O	15.3 µM (inactive)	61.5 µM (inactive)	47 µM (inactive)	25.6 µM (inactive)	–	31.1	> 100 µM (inactive)	21.1 µM (inactive)	24.2 µM (inactive)	–	18.7 µM (inactive)	23.8 µM (inactive)	22.8 µM (inactive)	21.8 µM (inactive)	37.8 µM (inactive)	45.1 µM (inactive)	31 µM (inactive)	44.7 µM (inactive)	> 100 µM (inactive)	14.6 µM (inactive)
COc1c(C)c(C/C=C(\C)CC/C=C(\C)CC/C=C(\C)CCC=C(C)C)c(OC)c2ccccc12	> 100 µM (inactive)	> 100 µM (inactive)	> 100 µM (inactive)	> 100 µM (inactive)	–	> 100	> 100 µM (inactive)	> 100 µM (inactive)	–	–	> 100 µM (inactive)	> 100 µM (inactive)	> 100 µM (inactive)	> 100 µM (inactive)	–	> 100 µM (inactive)	> 100 µM (inactive)	> 100 µM (inactive)	> 100 µM (inactive)	> 100 µM (inactive)
CCCCCCCCCCCCCCCCP(=O)(O)OCC(N)C(=O)O (stereo unspecified)	42 µM (inactive)	22.3 µM (inactive)	46.1 µM (inactive)	> 100 µM (inactive)	40.5 µM (inactive)	31.3	> 100 µM (inactive)	–	> 100 µM (inactive)	25.5 µM (inactive)	90.4 µM (inactive)	21.1 µM (inactive)	33.7 µM (inactive)	26.6 µM (inactive)	> 100 µM (inactive)	33 µM (inactive)	28.7 µM (inactive)	17.3 µM (inactive)	> 100 µM (inactive)	> 100 µM (inactive)
Cc1cccc(C)c1NC(=O)C(=O)C(C#N)c1ccccc1Cl (stereo unspecified)	> 100 µM (inactive)	> 100 µM (inactive)	> 100 µM (inactive)	> 100 µM (inactive)	> 100 µM (inactive)	> 100	> 100 µM (inactive)	–	> 100 µM (inactive)	> 100 µM (inactive)	> 100 µM (inactive)	> 100 µM (inactive)	> 100 µM (inactive)	> 100 µM (inactive)	> 100 µM (inactive)	> 100 µM (inactive)	> 100 µM (inactive)	> 100 µM (inactive)	–	> 100 µM (inactive)
C(/c1ccco1)=c1/nc(-c2ccccc2)n2c1nc1ccccc12	11 µM (inactive)	21.9 µM (inactive)	98.9 µM (inactive)	0.0107 µM (active)	–	97.3	20.9 µM (inactive)	42.6 µM (inactive)	16.4 µM (inactive)	9.48 µM (inactive)	35.2 µM (inactive)	69.8 µM (inactive)	20.2 µM (inactive)	24.3 µM (inactive)	–	20.6 µM (inactive)	21.7 µM (inactive)	10.3 µM (inactive)	23.4 µM (inactive)	45.1 µM (inactive)
